From ChEMBL document CHEMBL1201862, “PubChem BioAssay data set” (2004)
Several values for one entry are separate records, joined by “and”; a condition that tells them apart may be missing. Identical values can stand only once.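 1) Cells in 96-well plates. 2) Compound, 48 h, 5 concentrations. 3) Linear interpolation between surrounding doses. 4) Unreached endpoint = highest concentration. GI50 is the concentration that inhibits growth by half.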 Activity calls are given as the source filed them. Rule as the data show it: active = GI50 up to about 1.1 µM and inactive = higher. Square brackets hold non-standard residues; d marks the D form. Peptide text beside a SMILES is read from it. * marks the point of attachment. ξ: configuration not given here. ξF = NC(Cc1ccccc1)C(=O)O; Cbz = O=C(OCc1ccccc1)*; Aib = CC(C)(N)C(=O)O

Columns and labels:
Assay in all cases: NCI tumour cell line growth inhibition, 48 h
OVCAR-3 = system: OVCAR-3
U-251 = system: U-251
SNB-75 = system: SNB-75
HOP-62 = system: HOP-62
CAKI-1 = system: CAKI-1
MOLT-4 = system: MOLT-4
PC-3 = system: PC-3
HL-60 = system: HL-60
HT-29 = system: HT-29
MDA-N = system: MDA-N
NCI/ADR-RES = system: NCI/ADR-RES
BT-549 = system: BT-549
SK-MEL-2 = system: SK-MEL-2
OVCAR-4 = system: OVCAR-4
786-0 = system: 786-0
Malme-3M = system: Malme-3M
NCI-H460 = system: NCI-H460
SK-MEL-28 = system: SK-MEL-28
K562 = system: K562

SMILES	GI50 (OVCAR-3)	GI50 (U-251)	GI50 (SNB-75)	GI50 (HOP-62)	GI50 (CAKI-1)	GI50 (MOLT-4)	GI50 (PC-3)	GI50 (HL-60)	GI50 (HT-29)	GI50 (MDA-N)	GI50 (NCI/ADR-RES)	GI50 (BT-549)	GI50 (SK-MEL-2)	GI50 (OVCAR-4)	GI50 (786-0)	GI50 (Malme-3M)	GI50 (NCI-H460)	GI50 (SK-MEL-28)	GI50 (K562)
COC(=O)CCc1ccc2c(c1)CCC2	> 100 µM (inactive)	> 100 µM (inactive)	> 100 µM (inactive)	> 100 µM (inactive)	> 100 µM (inactive)	> 100 µM (inactive)	> 100 µM (inactive)	> 100 µM (inactive)	> 100 µM (inactive)	> 100 µM (inactive)	> 100 µM (inactive)	> 100 µM (inactive)	> 100 µM (inactive)	> 100 µM (inactive)	> 100 µM (inactive)	> 100 µM (inactive)	> 100 µM (inactive)	> 100 µM (inactive)	–
O=c1cc(-c2ccccc2)[nH]c2ccc(S)cc12	28.6 µM (inactive)	26.1 µM (inactive)	24.6 µM (inactive)	70.3 µM (inactive)	–	14.3 µM (inactive)	20.6 µM (inactive)	35.7 µM (inactive)	29 µM (inactive)	> 10 µM (inactive)	24.9 µM (inactive)	23.5 µM (inactive)	–	57.1 µM (inactive)	79.8 µM (inactive)	27.5 µM (inactive)	31.8 µM (inactive)	28.8 µM (inactive)	21.9 µM (inactive)
Cc1ccc(/C=C2/N/C(=N\N=C/C(O)C(O)C(O)CO)NC2=O)cc1 (stereo not given)	52.4 µM (inactive) and 69.8 µM (inactive)	> 100 µM (inactive)	> 100 µM (inactive)	> 100 µM (inactive)	> 100 µM (inactive)	–	> 100 µM (inactive)	56.5 µM (inactive) and 56.4 µM (inactive)	> 100 µM (inactive)	> 100 µM (inactive)	> 100 µM (inactive)	> 100 µM (inactive)	> 100 µM (inactive)	33.1 µM (inactive) and 35.8 µM (inactive)	> 100 µM (inactive)	–	> 100 µM (inactive)	> 100 µM (inactive)	55.5 µM (inactive) and 47.8 µM (inactive)
O=C1CN(C(=O)C2CCCN2C(=O)C2CCCN2)C(=O)CN1 (stereo not given)	> 100 µM (inactive)	> 100 µM (inactive)	> 100 µM (inactive)	> 100 µM (inactive)	> 100 µM (inactive)	> 100 µM (inactive)	> 100 µM (inactive)	> 100 µM (inactive)	> 100 µM (inactive)	> 100 µM (inactive)	> 100 µM (inactive)	> 100 µM (inactive)	–	> 100 µM (inactive)	> 100 µM (inactive)	> 100 µM (inactive)	> 100 µM (inactive)	> 100 µM (inactive)	> 100 µM (inactive)
COc1cc2c(cc1OC)C1C=NC(C2)c2cc(OC)c(OC)cc21 (stereo not given)	> 100 µM (inactive)	> 100 µM (inactive)	> 100 µM (inactive)	> 100 µM (inactive)	97.7 µM (inactive)	40.5 µM (inactive)	> 100 µM (inactive)	50.7 µM (inactive)	> 100 µM (inactive)	> 100 µM (inactive)	> 100 µM (inactive)	81.8 µM (inactive)	> 100 µM (inactive)	> 100 µM (inactive)	> 100 µM (inactive)	–	> 100 µM (inactive)	> 100 µM (inactive)	54.2 µM (inactive)
CC(C)OC(=O)NNc1cc(Cl)ccc1Cl	> 100 µM (inactive)	> 100 µM (inactive)	58.3 µM (inactive)	> 100 µM (inactive)	79.6 µM (inactive)	0.0611 µM (active)	56.8 µM (inactive)	21.7 µM (inactive)	> 100 µM (inactive)	73.6 µM (inactive)	> 100 µM (inactive)	64.3 µM (inactive)	65.8 µM (inactive)	–	> 100 µM (inactive)	35.6 µM (inactive)	80.7 µM (inactive)	> 100 µM (inactive)	19.2 µM (inactive)
COc1ccc2[nH]cc(CN3CCC(CO)(c4ccccc4)CC3)c2c1	48.2 µM (inactive)	30.3 µM (inactive)	27 µM (inactive)	19.7 µM (inactive)	–	21 µM (inactive)	31.1 µM (inactive)	18.7 µM (inactive)	23.1 µM (inactive)	18.7 µM (inactive)	> 100 µM (inactive)	78.9 µM (inactive)	23.2 µM (inactive)	42.2 µM (inactive)	15.3 µM (inactive)	25.8 µM (inactive)	30 µM (inactive)	17.9 µM (inactive)	17.6 µM (inactive)
N#CC(C#N)=c1c2ccccc2c(=C(C#N)C#N)c2ccccc12	16.3 µM (inactive)	19.4 µM (inactive)	18.1 µM (inactive)	19.4 µM (inactive)	14.9 µM (inactive)	7.76 µM (inactive)	16.1 µM (inactive)	19.8 µM (inactive)	18.6 µM (inactive)	18.7 µM (inactive)	25.6 µM (inactive)	23 µM (inactive)	17.1 µM (inactive)	–	14.9 µM (inactive)	–	42.2 µM (inactive)	17.7 µM (inactive)	19.9 µM (inactive)
CCOC(=O)C(Cl)(Cl)/S(=N\S(=O)(=O)c1ccccc1)NC(=O)c1ccccc1 (stereo not given)	> 100 µM (inactive)	> 100 µM (inactive)	> 100 µM (inactive)	> 100 µM (inactive)	–	> 100 µM (inactive)	> 100 µM (inactive)	0.65 µM (active)	> 100 µM (inactive)	> 100 µM (inactive)	> 100 µM (inactive)	> 100 µM (inactive)	> 100 µM (inactive)	> 100 µM (inactive)	> 100 µM (inactive)	> 100 µM (inactive)	> 100 µM (inactive)	> 100 µM (inactive)	> 100 µM (inactive)
O=C(CCCN1CCC(Nc2ccccc2)(c2nnnn2C2CCCCC2)CC1)c1ccc(F)cc1	9.27 µM (inactive)	5.86 µM (inactive)	10.2 µM (inactive)	6.17 µM (inactive)	–	14 µM (inactive)	3.94 µM (inactive)	4.73 µM (inactive)	3.03 µM (inactive)	5.28 µM (inactive)	21 µM (inactive)	7.96 µM (inactive)	4.21 µM (inactive)	6.34 µM (inactive)	3.89 µM (inactive)	3.24 µM (inactive)	8.65 µM (inactive)	3.79 µM (inactive)	13 µM (inactive)
O=c1cc(-c2ccccc2)[nH]c2ccc(N3CCCC3)cc12	0.0272 µM (active)	0.0102 µM (active)	40.6 µM (inactive)	0.0163 µM (active)	< 0.0175 µM (active)	0.0794 µM (active)	0.0282 µM (active)	< 0.01 µM (active)	0.0146 µM (active)	< 0.01 µM (active)	0.0159 µM (active)	> 100 µM (inactive)	0.0484 µM (active)	–	< 0.0114 µM (active)	> 100 µM (inactive)	0.0275 µM (active)	0.0533 µM (active)	< 0.01 µM (active)
Nc1ccc(C(=O)c2cn(CCN3CCOCC3)c3ccccc23)c2ccccc12	32.6 µM (inactive)	55.6 µM (inactive)	–	83.4 µM (inactive)	62.8 µM (inactive)	19.4 µM (inactive)	36.1 µM (inactive)	15.4 µM (inactive)	22.5 µM (inactive)	32.5 µM (inactive)	22.7 µM (inactive)	19.1 µM (inactive)	36.6 µM (inactive)	33 µM (inactive)	54.6 µM (inactive)	34.1 µM (inactive)	34.3 µM (inactive)	38.4 µM (inactive)	17.3 µM (inactive)
Cc1nn(-c2ccccn2)c2c1C(SC#N)=C(C=O)CC2	12.3 µM (inactive)	15.5 µM (inactive)	15.3 µM (inactive)	9.38 µM (inactive)	5.64 µM (inactive)	2.57 µM (inactive)	19.7 µM (inactive)	3.55 µM (inactive)	16.1 µM (inactive)	17.7 µM (inactive)	20.1 µM (inactive)	18.5 µM (inactive)	16.9 µM (inactive)	–	12.4 µM (inactive)	18.3 µM (inactive)	15.9 µM (inactive)	21.2 µM (inactive)	8.07 µM (inactive)
OCCCSc1ccccc1SCCCO	> 100 µM (inactive)	> 100 µM (inactive)	17.2 µM (inactive)	> 100 µM (inactive)	–	> 100 µM (inactive)	> 100 µM (inactive)	> 100 µM (inactive)	> 100 µM (inactive)	> 100 µM (inactive)	> 100 µM (inactive)	> 100 µM (inactive)	–	> 100 µM (inactive)	> 100 µM (inactive)	–	> 100 µM (inactive)	> 100 µM (inactive)	> 100 µM (inactive)
CC(C)(NC(=O)OCc1ccccc1)C(=O)NC(Cc1ccccc1)C(=O)O (stereo not given) (Cbz-[Aib]-[ξF]-OH)	> 100 µM (inactive)	> 100 µM (inactive)	> 100 µM (inactive)	> 100 µM (inactive)	> 100 µM (inactive)	> 100 µM (inactive)	> 100 µM (inactive)	–	> 100 µM (inactive)	> 100 µM (inactive)	> 100 µM (inactive)	> 100 µM (inactive)	> 100 µM (inactive)	> 100 µM (inactive)	> 100 µM (inactive)	> 100 µM (inactive)	> 100 µM (inactive)	> 100 µM (inactive)	> 100 µM (inactive)
